In patent US10144915B2, “Reprogramming fibroblasts into cardiomyocytes” (The J. David Gladstone Institutes, a testamentary trust …, priority 2013, dated 2018):

Experiments:
SAPK2/p38 = SAPK2/p38 (Homo sapiens, UniProt Q16539); details: CK1 and ALK5 inhibitor versus SAPK2/p38; cited from earlier work
adenylate cyclase 1 = adenylate cyclase 1 (Homo sapiens, UniProt Q08828); details: cited from earlier work
[1] = tested on: cardiomyocytes generated from mouse tail tip fibroblasts (TTFs); assay: β-adrenergic and muscarinic stimulation of induced cardiomyocytes (beating, Ca2+ transients); format: cell-based; details: applied locally
Protocol: Myocytes were loaded with 5 μM Fluo-4 AM (Molecular Probes, Invitrogen Corp, Carlsbad, Calif.), a Ca^++ indicator dye for 20 minutes at room temperature followed by 20 minutes in dye-free extracellular solution to allow for Fluo-4 de-esterification prior to commencing recordings. Ca^++ transients were recorded via a standard filter set (#49011 ET, Chroma Technology Corp., Bellows Falls, Vt.) and a photomultiplier-based recording system (lonOptix PMT400, Milton, Mass.). Fluorescence was recorded simultaneously from an entire myocyte cluster. Between sampling periods, excitation light was blocked by a shutter (CS35; Vincent Associates, Rochester, N.Y.) and background fluorescence was recorded after removing the cell(s) from the field of view at the end. Where applicable, 1 μM isoproterenol (Iso) or 25 μM carbachol (Cch) were applied locally (to the cell cluster of interest) using a perfusion pencil (AutoMate Scientific, Berkeley, Calif.).
Intact […] nervous system responses to hormones and transmitters are one of the most critical characteristics of normal cardiomyocytes. […] After washing out carbachol, cells resumed contracting and the Ca^2+ transients immediately returned to normal (FIG. 4H).

SAPK2/p38, sequence (Q16539 whole entry): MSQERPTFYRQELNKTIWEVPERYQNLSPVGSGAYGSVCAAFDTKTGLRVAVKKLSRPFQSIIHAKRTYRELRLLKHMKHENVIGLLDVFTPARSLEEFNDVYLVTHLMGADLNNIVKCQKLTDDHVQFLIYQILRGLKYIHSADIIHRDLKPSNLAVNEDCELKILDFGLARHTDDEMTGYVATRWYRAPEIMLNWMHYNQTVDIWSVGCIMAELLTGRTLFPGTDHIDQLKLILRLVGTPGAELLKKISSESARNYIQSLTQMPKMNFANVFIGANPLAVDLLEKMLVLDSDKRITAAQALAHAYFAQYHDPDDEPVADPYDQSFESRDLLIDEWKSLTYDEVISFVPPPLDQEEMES
adenylate cyclase 1, sequence (Q08828 whole entry): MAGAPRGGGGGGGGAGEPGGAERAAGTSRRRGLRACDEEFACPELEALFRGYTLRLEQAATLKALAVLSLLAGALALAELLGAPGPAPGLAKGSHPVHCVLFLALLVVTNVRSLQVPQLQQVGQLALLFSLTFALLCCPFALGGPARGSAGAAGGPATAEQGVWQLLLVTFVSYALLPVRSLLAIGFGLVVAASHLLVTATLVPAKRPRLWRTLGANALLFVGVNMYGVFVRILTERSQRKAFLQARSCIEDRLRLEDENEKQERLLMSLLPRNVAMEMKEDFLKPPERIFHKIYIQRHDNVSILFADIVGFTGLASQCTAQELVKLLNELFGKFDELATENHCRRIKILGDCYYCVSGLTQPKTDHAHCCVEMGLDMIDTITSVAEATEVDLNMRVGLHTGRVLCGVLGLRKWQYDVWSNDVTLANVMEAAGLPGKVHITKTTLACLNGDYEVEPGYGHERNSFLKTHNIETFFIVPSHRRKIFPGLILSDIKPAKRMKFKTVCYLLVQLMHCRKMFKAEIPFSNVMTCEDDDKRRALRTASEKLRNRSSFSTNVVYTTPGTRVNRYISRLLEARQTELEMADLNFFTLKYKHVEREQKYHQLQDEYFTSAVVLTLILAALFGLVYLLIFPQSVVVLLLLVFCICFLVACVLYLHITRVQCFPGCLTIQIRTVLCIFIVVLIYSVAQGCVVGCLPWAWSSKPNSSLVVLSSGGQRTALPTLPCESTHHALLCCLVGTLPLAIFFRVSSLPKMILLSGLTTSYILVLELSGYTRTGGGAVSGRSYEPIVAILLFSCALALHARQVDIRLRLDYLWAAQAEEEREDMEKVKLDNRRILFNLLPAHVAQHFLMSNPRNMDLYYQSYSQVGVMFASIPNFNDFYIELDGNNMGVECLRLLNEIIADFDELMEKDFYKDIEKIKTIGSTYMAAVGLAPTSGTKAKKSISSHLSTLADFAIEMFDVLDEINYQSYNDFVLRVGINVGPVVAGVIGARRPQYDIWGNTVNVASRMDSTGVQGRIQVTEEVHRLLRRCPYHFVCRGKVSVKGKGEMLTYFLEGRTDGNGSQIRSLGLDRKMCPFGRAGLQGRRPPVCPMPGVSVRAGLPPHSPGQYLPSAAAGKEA

In the case of `NC(=O)c1ccc(-c2nc(-c3ccc4c(c3)OCCO4)c(-c3ccccn3)[nH]2)cc1` [D 4476, 4-[4-(2,3-Dihydro-1,4-benzodioxin-6-yl)-5-(2-pyridinyl)-1H-imidazol-2-yl]benzamide], the “selectivity over SAPK2/p38” value (SAPK2/p38) is given as “greater than 20 fold”.
In the case of `C=C[C@@]1(C)CC(=O)[C@]2(O)[C@@]3(C)[C@@H](O)CCC(C)(C)[C@@H]3[C@H](O)[C@H](OC(C)=O)[C@@]2(C)O1` [Forskolin], the IC50 (adenylate cyclase 1) is listed as 40 to 150 nM.
For `C[N+](C)(C)CCOC(N)=O` [carbachol], the “frequency of cell contracting and spontaneous calcium transients” value ([1]; 25 μM, reversible on wash-out) was “opposite effect”.
For `CC(C)NCC(O)c1ccc(O)c(O)c1` (stereo not shown) [isoproterenol], the “frequency of cell contracting and spontaneous calcium transients” value ([1]; 1 μM) was “significantly increased”.
